Source: article PMC6609034, “Unraveling the role of the secretor antigen in human rotavirus attachment to histo-blood group antigens” (PLoS Pathogens, 2019)

Experiments:
VP8* P[8]Wa (lineage I) = target: T1, VP8* P[8]Wa (lineage I) (Rotavirus A, UniProt P11193); experiment: SPR apparent affinity of VP8* for immobilized HBGAs; type: binding, human rotavirus; conditions: PAA-biotin glycan immobilized on SA chip, VP8* as analyte, 10°C, ± standard deviation, read-out: Kda (apparent affinity constant)
T1 construct: amino acids 64–224 from the VP4 protein of rotavirus; GST (N); made in house; host or cells: E. coli BL21 (DE3)
T1 sequence (P11193 64-224): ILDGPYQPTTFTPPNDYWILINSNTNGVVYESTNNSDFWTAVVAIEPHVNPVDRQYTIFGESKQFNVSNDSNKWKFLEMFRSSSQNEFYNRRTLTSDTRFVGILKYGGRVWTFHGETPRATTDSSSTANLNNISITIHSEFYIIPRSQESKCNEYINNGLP
Description: (§1) The affinity assays were based on SPR and performed in a Biacore T100 instrument (GE Healthcare). H1 PAA-biotin and LNB PAA-biotin were diluted to a concentration of 1 mg/ml in water and captured with streptavidin present in a SA sensor chip (GE Healthcare). H1 was immobilized in channel 2 (630 RU) of the sensor chip and LNB was immobilized in channel 4 (624 RU). The channels 1 and 3 were used as the reference surfaces for channels 2 and 4, respectively. The immobilization process was performed by conditioning the sensor chip surface with three consecutive 1-minute injections of 1 M NaCl 50 mM NaOH before biotinylated ligands were immobilized at a flow rate of 15 μl/min. The affinity assays of VP8* polypeptides to biotinylated sugars were performed at 10°C using 1X HBS-EP^+ buffer (0.01 M HEPES pH 7.4, 0.15 M NaCl, 3 mM EDTA, 0.005% Surfactant P20), a flow rate of 5 μl/min with 2700 seconds of contact time and a dissociation time of 1800 seconds. The regeneration step consisted in a wash step with 10 mM Glycine-HCl pH 2 for 20 seconds at the same flow rate. The assays were performed with purified VP8* at different concentrations (45; 137; 411; 1,234; 3,703; 11,111; 33,333; 100,000 and 200,000 nM). Each run included three blanks without sample. The affinity data were obtained after analysis of sensorgrams performed with the BIAevaluation 2.0 software (GE Healthcare). Since multivalent oligosaccharides are immobilized on a sensor chip surface, avidity and rebinding effects can take place and apparent affinity constants (Kda) are calculated with this experimental setup. Kda values were obtained from the steady-state kinetics experiment as the ligand concentration needed to achieve a half-maximum binding at equilibrium. The experiments were made in triplicate. Graphical representation of signal/concentration curves were plotted using GraphPad Prism 6 for MacOsX.

[1] = target: T2, VP8* P[8]c (clinical isolate, lineage III) (Rotavirus A, UniProt A0A0S0VKY7); experiment: as above; type: binding, human rotavirus; conditions: PAA-biotin glycan immobilized on SA chip, VP8* as analyte, 10°C, ± standard deviation, read-out: Kda (apparent affinity constant)
T2 sequence (A0A0S0VKY7 1-161): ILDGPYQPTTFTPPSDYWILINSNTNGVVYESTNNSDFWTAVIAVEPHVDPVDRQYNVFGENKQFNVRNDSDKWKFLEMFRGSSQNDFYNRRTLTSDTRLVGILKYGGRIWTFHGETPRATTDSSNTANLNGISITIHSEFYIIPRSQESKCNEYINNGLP
Description: as §1

P[8]c M4(Ile173Val) VP8* = target: T3, P[8]c M4(Ile173Val) VP8* (Rotavirus A, UniProt A0A0S0VKY7, I110V); experiment: as above; type: binding, human rotavirus; conditions: for Kd: PAA-biotin glycan immobilized on SA chip, VP8* as analyte, 10°C, ± standard deviation, read-out: Kda (apparent affinity constant)
T3 sequence (A0A0S0VKY7 1-161 I110V): T2 sequence (A0A0S0VKY7 1-161)
Description: (§2) Selected residues in the GST::VP8* P[8] were replaced for alanine or valine according to the structural data of the LNB binding site. Four mutants (M1–M4) were constructed using a Quick-Change site-directed mutagenesis kit (Stratagene) and appropriate oligonucleotides (S5 Table), and the DNA changes were confirmed by DNA sequencing. Mutant M1, M2 and M3 contained changes in the codons for tryptophan 174, arginine 209 and glutamic 212 residues, respectively, that introduced an alanine at each position. Mutant M4 substituted isoleucine 173 by valine.
as §1, with “The affinity data were obtained after analysis of sensorgrams performed with the BIAevaluation 2.0 software (GE Healthcare).” left out, “Kda values were obtained from the steady-state kinetics experiment as the ligand concentration needed to achieve a half-maximum binding at equilibrium. The experiments were made in triplicate. Graphical representation of signal/concentration curves were plotted using GraphPad Prism 6 for MacOsX.” left out

[2] = target: VP8* from Rotarix strain (lineage I); experiment: SPR interaction of VP8* with immobilized HBGAs; type: binding, human rotavirus
Description: as §1

[3] = target: VP8* from the lineage IV strain (P[8]LIV); experiment: SPR interaction of VP8* with immobilized HBGAs; type: binding, human rotavirus
Description: as §1

[4] = tested on: P[8]c VP8* mutant E212A (M3); experiment: SPR binding of VP8* mutant; set-up: species or system human rotavirus
Description: as §2, §1

[5] = tested on: P[8]c VP8* mutant W174A (M1); experiment: SPR binding of VP8* mutant; set-up: species or system human rotavirus
Description: as §2, §1

[6] = tested on: Wa DLP (double-layered particles); experiment: ELISA-like glycan binding assay of rotavirus particles; set-up: species or system human rotavirus; conditions: DLP 10 to 0.078 μg/ml
Description: (§3) African green monkey kidney epithelial cells (MA104 cell line; ATTC #CRL-2378.1) were used for the propagation of rotavirus Wa strain that belongs to the globally dominant human genotype G1P[8]. Briefly, ten MA104 cells confluent 150-cm^2 flasks (approximately 1.5 ×10^7 cells/flask) were infected with Wa strain at a multiplicity of infection (MOI) of ≤ 0.1 and processed as previously described. One hundred ml of medium with 1.5x10^8 virus/ml were obtained and the viral particles were concentrated by pelleting at 160,000 × g for 1 h at 4°C in a SW 41 rotor (Beckman). The viral pellet was resuspended in TNC buffer (20 mM Tris-HCl pH 8.0, 100 mM NaCl, 1 mM CaCl2) for triple-layered particles (TLP) or in TNE (20 mM Tris-HCl, pH 8.0, 100 mM NaCl, 1 mM EDTA) for double-layered particles (DLP).
(§4) An ELISA-like binding assay was employed to determine the binding ability of rotavirus TLP and DLP to the H type-1 antigen and to its precursor LNB. Streptavidin plates were coated with the biotinylated oligosaccharides as described above. After washing with PBS-T, two fold serial dilutions of TLPs and DLP were added to the plate (ranging from 10 μg/ml to 0.078 μg/ml). The TLP were always maintained in TNC-T (20 mM Tris, 100 mM NaCl, 1 mM CaCl2, 0.05% Tween 20, pH 7,4) buffer and the binding and washing steps were always carried out in this solution. DLPs assays were carried out in Tris-buffered saline buffer with Tween 20 (TBS-T, 20 mM Tris, 100 mM NaCl, 0.05% Tween 20, pH 7.4). TLP and DLP were incubated in the plate overnight at 4°C. After binding, the plates were washed three times in TNC-T (for TLP) or TBS-T (for DLP) with 0.05% Tween 20 (TNC-T and TBS-T), and a mouse anti-VP6 antibody was added at 1:100 in TNC-T or TBS-T and incubated 1 h at 37°C. The plates were then washed three times with TNC-T or TBS-T, and a HRP-conjugated anti-mouse IgG was added at 1:10.000 and incubated at 37°C for 1 h. […] Fluorescence units were recorded by a MultiScan microplate reader.

[7] = tested on: Wa TLP (triple-layered particles); experiment: as above; set-up: species or system human rotavirus; conditions: TLP 10 to 0.078 μg/ml
Description: as §3, §4

SMILES	Kd (VP8* P[8]Wa (lineage I))	Kd [1]	Kd (P[8]c M4(Ile173Val) VP8*)	Kda of VP8 I173V compared to the wild-type protein (P[8]c M4(Ile173Val) VP8*; higher than wild-type P[8]c)	interaction by SPR [2]	interaction by SPR [3]	binding by SPR [4]	binding by SPR [5]	binding of rotavirus particles (ELISA-like) [6]	binding of rotavirus particles (ELISA-like) [7]
CC(=O)NC1C(O)OC(CO)C(O)C1OC1OC(CO)C(O)C(O)C1OC1OC(C)C(O)C(O)C1O (stereo not drawn) [H1, Fuc-α1,2-Gal-β1,3-GlcNAc]	80.2 µM	27.9 µM	39 µM	1.4 fold	too low to be determined	too low to be determined	lost their ability to interact	lost their ability to interact	not	able to bind
CC(=O)NC1C(O)OC(CO)C(O)C1OC1OC(CO)C(O)C(O)C1O (stereo not drawn) [LNB, Gal-β1,3-GlcNAc]	66.5 µM	52.1 µM	49.4 µM		too low to be determined	too low to be determined	lost their ability to interact	lost their ability to interact	not	able to bind
